Laboratory results reported in patent US10172961B2 (priority 2014, dated 2019).

Assays:
[1] = rat, in vivo
in vivo = conditions: rat, inhaled or intranasal, 6 mg/kg

Row | SMILES | presence in the brain / CNS localization [1] | presence in the serum [1] | level at time molar at 8 h (in vivo) [nM]
1 | CC[C@H](C)[C@H](NC(=O)[C@H](C)NC(=O)[C@H](CC(N)=O)NC(=O)CNC(=O)[C@H](CC(C)C)NC(=O)[C@H](CC(N)=O)NC(=O)[C@@H](NC(=O)CNC(=O)[C@@H](NC(=O)[C@H](CC(=O)O)NC(=O)[C@H](CC(C)C)NC(=O)[C@H](CCCNC(=N)N)NC(=O)[C@H](CCC(=O)O)NC(=O)[C@H](CC(C)C)NC(=O)[C@H](CO)NC(=O)[C@@H](NC(=O)[C@@H]1CCCN1C(=O)[C@@H]1CCCN1C(C)=O)[C@@H](C)CC)C(C)C)[C@@H](C)O)C(=O)N[C@@H](C)C(=O)N[C@@H](CCCCN)C(=O)N[C@@H](CC(C)C)C(=O)N[C@@H](CCC(=O)O)C(=O)N[C@@H](CC(=O)O)C(=O)N[C@@H](C)C(=O)N[C@@H](CCCCN)C(=O)N[C@@H](CCC(=O)O)C(=O)N[C@@H](CC(C)C)C(=O)N[C@@H](CC(C)C)C(=O)N[C@@H](CCC(=O)O)C(=O)N[C@@H](CO)C(=O)N[C@@H](CO)C(=O)N[C@@H](CC(=O)O)C(=O)N[C@@H](CCC(N)=O)C(=O)N[C@H](C(=O)N[C@@H](CC(C)C)C(=O)N[C@@H](CCCNC(=N)N)C(=O)NCC(=O)N[C@@H](CO)C(=O)NCC(=O)N[C@@H](CO)C(=O)NCC(=O)N[C@@H](CSC1=CC(=O)N(CCCC(=O)NCCOCCOCCOCCOCCC(=O)NCCN(CCNC(=O)CCOCCOCCOCCOCCNC(=O)CCCN2C(=O)C=C(SC[C@H](NC(=O)CNC(=O)[C@H](CO)NC(=O)CNC(=O)[C@H](CO)NC(=O)CNC(=O)[C@H](CCCNC(=N)N)NC(=O)[C@H](CC(C)C)NC(=O)[C@@H](NC(=O)[C@H](CCC(N)=O)NC(=O)[C@H](CC(=O)O)NC(=O)[C@H](CO)NC(=O)[C@H](CO)NC(=O)[C@H](CCC(=O)O)NC(=O)[C@H](CC(C)C)NC(=O)[C@H](CC(C)C)NC(=O)[C@H](CCC(=O)O)NC(=O)[C@H](CCCCN)NC(=O)[C@H](C)NC(=O)[C@H](CC(=O)O)NC(=O)[C@H](CCC(=O)O)NC(=O)[C@H](CC(C)C)NC(=O)[C@H](CCCCN)NC(=O)[C@H](C)NC(=O)[C@@H](NC(=O)[C@H](C)NC(=O)[C@H](CC(N)=O)NC(=O)CNC(=O)[C@H](CC(C)C)NC(=O)[C@H](CC(N)=O)NC(=O)[C@@H](NC(=O)CNC(=O)[C@@H](NC(=O)[C@H](CC(=O)O)NC(=O)[C@H](CC(C)C)NC(=O)[C@H](CCCNC(=N)N)NC(=O)[C@H](CCC(=O)O)NC(=O)[C@H](CC(C)C)NC(=O)[C@H](CO)NC(=O)[C@@H](NC(=O)[C@@H]3CCCN3C(=O)[C@@H]3CCCN3C(C)=O)[C@@H](C)CC)C(C)C)[C@@H](C)O)[C@@H](C)CC)[C@@H](C)CC)C(N)=O)C2=O)CCOc2c(C)c(C)c3c(c2C)CC[C@](C)(CCC[C@@H](C)CCC[C@@H](C)CCCC(C)C)O3)C1=O)C(N)=O)[C@@H](C)CC [HRC4-tocopherol] | no CNS localization | minimal presence in the serum | ~2000
2 | CC[C@H](C)[C@H](NC(=O)[C@H](C)NC(=O)[C@H](CC(N)=O)NC(=O)CNC(=O)[C@H](CC(C)C)NC(=O)[C@H](CC(N)=O)NC(=O)[C@@H](NC(=O)CNC(=O)[C@@H](NC(=O)[C@H](CC(=O)O)NC(=O)[C@H](CC(C)C)NC(=O)[C@H](CCCNC(=N)N)NC(=O)[C@H](CCC(=O)O)NC(=O)[C@H](CC(C)C)NC(=O)[C@H](CO)NC(=O)[C@@H](NC(=O)[C@@H]1CCCN1C(=O)[C@@H]1CCCN1C(C)=O)[C@@H](C)CC)C(C)C)[C@@H](C)O)C(=O)N[C@@H](C)C(=O)N[C@@H](CCCCN)C(=O)N[C@@H](CC(C)C)C(=O)N[C@@H](CCC(=O)O)C(=O)N[C@@H](CC(=O)O)C(=O)N[C@@H](C)C(=O)N[C@@H](CCCCN)C(=O)N[C@@H](CCC(=O)O)C(=O)N[C@@H](CC(C)C)C(=O)N[C@@H](CC(C)C)C(=O)N[C@@H](CCC(=O)O)C(=O)N[C@@H](CO)C(=O)N[C@@H](CO)C(=O)N[C@@H](CC(=O)O)C(=O)N[C@@H](CCC(N)=O)C(=O)N[C@H](C(=O)N[C@@H](CC(C)C)C(=O)N[C@@H](CCCNC(=N)N)C(=O)NCC(=O)N[C@@H](CO)C(=O)NCC(=O)N[C@@H](CO)C(=O)NCC(=O)N[C@@H](CSC1=CC(=O)N(CCCC(=O)NCCOCCOCCOCCOCCC(=O)NCCN(CCNC(=O)CCOCCOCCOCCOCCNC(=O)CCCN2C(=O)C=C(SC[C@H](NC(=O)CNC(=O)[C@H](CO)NC(=O)CNC(=O)[C@H](CO)NC(=O)CNC(=O)[C@H](CCCNC(=N)N)NC(=O)[C@H](CC(C)C)NC(=O)[C@@H](NC(=O)[C@H](CCC(N)=O)NC(=O)[C@H](CC(=O)O)NC(=O)[C@H](CO)NC(=O)[C@H](CO)NC(=O)[C@H](CCC(=O)O)NC(=O)[C@H](CC(C)C)NC(=O)[C@H](CC(C)C)NC(=O)[C@H](CCC(=O)O)NC(=O)[C@H](CCCCN)NC(=O)[C@H](C)NC(=O)[C@H](CC(=O)O)NC(=O)[C@H](CCC(=O)O)NC(=O)[C@H](CC(C)C)NC(=O)[C@H](CCCCN)NC(=O)[C@H](C)NC(=O)[C@@H](NC(=O)[C@H](C)NC(=O)[C@H](CC(N)=O)NC(=O)CNC(=O)[C@H](CC(C)C)NC(=O)[C@H](CC(N)=O)NC(=O)[C@@H](NC(=O)CNC(=O)[C@@H](NC(=O)[C@H](CC(=O)O)NC(=O)[C@H](CC(C)C)NC(=O)[C@H](CCCNC(=N)N)NC(=O)[C@H](CCC(=O)O)NC(=O)[C@H](CC(C)C)NC(=O)[C@H](CO)NC(=O)[C@@H](NC(=O)[C@@H]3CCCN3C(=O)[C@@H]3CCCN3C(C)=O)[C@@H](C)CC)C(C)C)[C@@H](C)O)[C@@H](C)CC)[C@@H](C)CC)C(N)=O)C2=O)CCOC2CCC3(C)C(=CCC4C3CCC3(C)C(C(C)CCCC(C)C)CCC43)C2)C1=O)C(N)=O)[C@@H](C)CC (stereo partly drawn) [MV HRC4] | a small fraction of the administered peptides was present | a small fraction of the administered peptides was present | ~400
